Assay results from patent US8609692B2, “TRPV1 antagonists” (AbbVie Inc., priority 2008, dated 2013).

What was measured:
[1] = target: T1, human TRPV1 receptor (hTRPV1) (Homo sapiens, UniProt Q8NER1); experiment: Capsaicin activation assay (Ca2+ influx, FLIPR); format: cell-based; settings: 0.05 μM capsaicin, 1321N1 cells expressing hTRPV1
T1 construct: expressed in transfected cells
Experimental: Dulbecco's modified Eagle medium (D-MEM) (with 4.5 mg/mL glucose) and fetal bovine serum were obtained from Hyclone Laboratories, Inc. (Logan, Utah). Dulbecco's phosphate-buffered saline (D-PBS) (with 1 mg/mL glucose and 3.6 mg/l Na pyruvate, without phenol red), L-glutamine, hygromycin B, and Lipofectamine® were obtained from Life Technologies (Grand Island, N.Y.). G418 sulfate was obtained from Calbiochem-Novabiochem Corp. (San Diego, Calif.). Capsaicin (8-methyl-N-vanillyl-6-nonenamide) was obtained from Sigma-Aldrich, Co. (St. Louis, Mo.). Fluo-4 AM (N-[4-[6-[(acetyloxy)methoxy]-2,7-difluoro-3-oxo-3H-xanthen-9-yl]-2-[2-[2-[bis[2-[(acetyloxy)methoxy]-2-oxyethyl]amino]-5-methyl-phenoxy]ethoxy]phenyl]-N-[2-[(acetyloxy)methoxy]-2-oxyethyl]-glycine, (acetyloxy)methyl ester) was purchased from Molecular Probes (Eugene, Oreg.).
The cDNAs for the human TRPV1 receptor (hTRPV1) were isolated by reverse transcriptase-polymerase chain reaction (RT-PCR) from human small intestine poly A+RNA supplied by Clontech (Palo Alto, Calif.) using primers designed surrounding the initiation and termination codons identical to the published sequences (Hayes et al. Pain 2000, 88, 205-215). The resulting cDNA PCR products were subcloned into pCIneo mammalian expression vector (Promega) and fully sequenced using fluorescent dye-terminator reagents (Prism, Perkin-Elmer Applied Biosystems Division) and a Perkin-Elmer Applied Biosystems Model 373 DNA sequencer or Model 310 genetic analyzer. Expression plasmids encoding the hTRPV1 cDNA were transfected individually into 1321N1 human astrocytoma cells using Lipofectamine®. Forty-eight hours after transfection, the neomycin-resistant cells were selected with growth medium containing 800 μg/mL Geneticin (Gibco BRL). Surviving individual colonies were isolated and screened for TRPV1 receptor activity. Cells expressing recombinant homomeric TRPV1 receptors were maintained at 37° C. in D-MEM containing 4 mM L-glutamine, 300 μg/mL G418 (Cal-biochem) and 10% fetal bovine serum under a humidified 5% CO2 atmosphere.
The functional activity of compounds at the TRPV1 receptor was determined with a Ca^2+ influx assay and measurement of intracellular Ca^2+ levels ([Ca^2+]i). All compounds were tested over an 11-point half-log concentration range. Compound solutions were prepared in D-PBS (4× final concentration), and diluted serially across 96-well v-bottom tissue culture plates using a Biomek 2000 robotic automation workstation (Beckman-Coulter, Inc., Fullerton, Calif.). A 0.2 μM solution of the TRPV1 agonist capsaicin was also prepared in D-PBS. The fluorescent Ca^2+ chelating dye Fluo-4 AM was used as an indicator of the relative levels of [Ca^2+]i in a 96-well format using a Fluorescence Imaging Plate Reader (FLIPR) (Molecular Devices, Sunnyvale, Calif.). Cells were grown to confluency in 96-well black-walled tissue culture plates. Then, prior to the assay, the cells were loaded with 100 μL per well of Fluo-4 AM (2 μM, in D-PBS) for 1-2 hours at 23° C. Washing of the cells was performed to remove extracellular Fluo-4 AM (2×1 mL D-PBS per well), and afterward, the cells were placed in the reading chamber of the FLIPR instrument. 50 μL of the compound solutions were added to the cells at the 10 second time mark of the experimental run. Then, after a 3-minute time delay, 50 μL of the capsaicin solution was added at the, 190 second time mark (0.05 μM final concentration)(final volume=200 μL) to challenge the TRPV1 receptor. Time length of the experimental run was 240 seconds. Fluorescence readings were made at 1 to 5 second intervals over the course of the experimental run. The peak increase in relative fluorescence units (minus baseline) was calculated from the 190 second time mark to the end of the experimental run, and expressed as a percentage of the 0.05 μM capsaicin (control) response. […]

[2] = Rat telemetry protocol (core body temperature); format: in vivo; settings: core body temperature of rats at one hour post dosing (100 μmol/kg, p.o.), relative to vehicle
Experimental: Male, Sprague Dawley rats, 225-250 grams were anesthetized with Sevoflurane (Abbott Laboratories). Rats were placed on a heating pad and covered with a sterile surgical drape. A ventral midline abdominal incision was made and sterile cotton tip applicators were used to gently move internal tissue and expose the abdominal aorta for implantation of the telemetry catheter (Data Sciences International; TL11M2-050-PXT). Blood flow was temporarily stopped to the lower extremities (5-7 min) with Diffenbach clamps to allow the insertion of the telemetry catheter into the abdominal aorta. Once inserted, a sterile cellulose patch was placed over the catheter/aorta and secured using a small amount of tissue adhesive (Vetbond, 3M). Once catheter placement was complete, the clamps were removed and blood flow was restored to the lower extremities. The transmitter was placed in the intraperitoneal cavity. The transmitter suture rib was sewn into the abdominal sutures to secure it in place. The skin was closed using sterile wound clips and the animal removed from Sevoflurane. Buprenex ([…] s.c.; Phoenix) was administered for post-operative analgesia. Animals were maintained on a heating pad until ambulatory, and then individually housed with food and water ad lib. Surgical staples were removed after 7-10 days post-implantation. Rats were allowed a 2-week post-surgical recovery period before treatment with test compound. Oral dosing (p.o.) was at time zero, with rats receiving a single dose of vehicle (10% EtOH, 20% Tween-80, 70% PEG-400) or a 100 μmol/kg dose of compound dissolved in vehicle. Temperature measurements were recorded every 15 minutes for the duration of the study (24 hours).
The term “core body temperature” as used herein, means the temperature measured in the intraperitoneal cavity.

T1 sequence (Q8NER1 whole entry): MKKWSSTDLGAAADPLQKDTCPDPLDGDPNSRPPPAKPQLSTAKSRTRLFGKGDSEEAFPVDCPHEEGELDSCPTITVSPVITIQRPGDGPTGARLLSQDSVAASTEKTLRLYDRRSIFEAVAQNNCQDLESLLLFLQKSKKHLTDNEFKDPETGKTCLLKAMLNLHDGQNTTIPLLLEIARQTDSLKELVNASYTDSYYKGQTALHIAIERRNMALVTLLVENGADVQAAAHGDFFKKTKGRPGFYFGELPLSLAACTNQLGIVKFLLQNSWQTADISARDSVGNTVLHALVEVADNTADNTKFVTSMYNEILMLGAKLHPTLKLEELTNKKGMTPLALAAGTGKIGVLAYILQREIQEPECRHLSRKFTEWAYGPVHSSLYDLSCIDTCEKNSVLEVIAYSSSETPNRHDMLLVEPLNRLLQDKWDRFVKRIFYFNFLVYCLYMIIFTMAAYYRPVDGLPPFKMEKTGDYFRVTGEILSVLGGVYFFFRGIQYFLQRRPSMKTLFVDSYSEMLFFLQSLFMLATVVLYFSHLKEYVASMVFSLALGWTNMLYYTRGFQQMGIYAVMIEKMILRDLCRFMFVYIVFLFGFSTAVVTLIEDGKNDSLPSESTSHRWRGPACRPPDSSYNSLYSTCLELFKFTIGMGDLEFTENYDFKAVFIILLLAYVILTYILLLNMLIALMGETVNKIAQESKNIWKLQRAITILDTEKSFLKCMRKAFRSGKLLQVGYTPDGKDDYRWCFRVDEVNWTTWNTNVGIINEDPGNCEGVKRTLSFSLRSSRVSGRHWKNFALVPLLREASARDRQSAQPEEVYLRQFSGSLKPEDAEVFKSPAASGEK

IC50 [1] | SMILES | Δ Temp [2]
15 nM | Cc1cc2c(NC(=O)N[C@@H]3C[C@@](C)(CF)Oc4cc(C(F)(F)F)ccc43)cccc2cn1 [Example 129, N-[(2S,4R)-2-(fluoromethyl)-2-methyl-7-(trifluoromethyl)-3,4-dihydro-2H-chromen-4-yl]-N′-(3-methylisoquinolin-5-yl)urea] | 0.7 °C
21 nM | Cn1ncc2c(NC(=O)N[C@@H]3CC(CF)(CF)Oc4cc(OC(F)(F)F)ccc43)cccc21 [Example 92, N-[(4R)-2,2-bis(fluoromethyl)-7-(trifluoromethoxy)-3,4-dihydro-2H-chromen-4-yl]-N′-(1-methyl-1H-indazol-4-yl)urea] | 0.8 °C
18 nM | CCC1(CC)C[C@@H](NC(=O)Nc2cccc3ccncc23)c2ccc(F)cc2O1 [Example 82, N-[(4R)-2,2-diethyl-7-fluoro-3,4-dihydro-2H-chromen-4-yl]-N′-isoquinolin-8-ylurea] | 1.5 °C
9 nM | CCC1(CC)C[C@@H](NC(=O)Nc2cccc3c2C[C@@H](O)CC3)c2ccc(F)cc2O1 [Example 71, N-[(4R)-2,2-diethyl-7-fluoro-3,4-dihydro-2H-chromen-4-yl]-N′-[(7S)-7-hydroxy-5,6,7,8-tetrahydronaphthalen-1-yl]urea] | 0.5 °C
29 nM | CC1(C)C[C@@H](NC(=O)Nc2cccc3c2C[C@H](O)CC3)c2cc(F)cc(F)c2O1 [Example 18, N-[(4R)-6,8-difluoro-2,2-dimethyl-3,4-dihydro-2H-chromen-4-yl]-N′-[(7R)-7-hydroxy-5,6,7,8-tetrahydronaphthalen-1-yl]urea] | 1.4 °C
28 nM | O=C(Nc1cccc2c1C[C@@H](O)CC2)N[C@@H]1CC2(CCC2)Oc2ccc(F)cc21 [Example 9, N-[(4R)-6-fluoro-3,3′,4,4′-tetrahydro-2′H-spiro[chromene-2,1′-cyclobutan]-4-yl]-N′-[(7S)-7-hydroxy-5,6,7,8-tetrahydronaphthalen-1-yl]urea] | 0.9 °C
21 nM | CC1(C)C[C@@H](NC(=O)Nc2cccc3c2C[C@@H](O)CC3)c2ccc(Cl)cc2O1 [Example 103, N-[(4R)-7-chloro-2,2-dimethyl-3,4-dihydro-2H-chromen-4-yl]-N′-[(7S)-7-hydroxy-5,6,7,8-tetrahydronaphthalen-1-yl]urea] | 1.3 °C
4 nM | Cn1ncc2c(NC(=O)N[C@@H]3CCOc4c(OC(F)(F)F)cccc43)cccc21 [Example 79, N-(1-methyl-1H-indazol-4-yl)-N′-[(4R)-8-(trifluoromethoxy)-3,4-dihydro-2H-chromen-4-yl]urea] | 1.5 °C
15 nM | CC1(C)C[C@@H](NC(=O)Nc2cccc3c2C[C@@H](O)CC3)c2ccc(F)c(F)c2O1 [Example 114, N-[(4R)-7,8-difluoro-2,2-dimethyl-3,4-dihydro-2H-chromen-4-yl]-N′-[(7S)-7-hydroxy-5,6,7,8-tetrahydronaphthalen-1-yl]urea] | 0.6 °C
32 nM | O=C(Nc1cccc2ccncc12)N[C@@H]1CC(CF)(CF)Oc2cc(C(F)(F)F)ccc21 [Example 93, N-[(4R)-2,2-bis(fluoromethyl)-7-(trifluoromethyl)-3,4-dihydro-2H-chromen-4-yl]-N′-isoquinolin-8-ylurea] | 1.1 °C
38 nM | CCC1(CC)C[C@@H](NC(=O)Nc2cccc3c2C[C@H](O)CC3)c2cc(F)ccc2O1 [Example 54, N-[(4R)-2,2-diethyl-6-fluoro-3,4-dihydro-2H-chromen-4-yl]-N′-[(7R)-7-hydroxy-5,6,7,8-tetrahydronaphthalen-1-yl]urea] | 1.0 °C
28 nM | CC1(C)C[C@@H](NC(=O)Nc2cccc3ccncc23)c2ccc(C(F)(F)F)cc2O1 [Example 43, N-[(4R)-2,2-dimethyl-7-(trifluoromethyl)-3,4-dihydro-2H-chromen-4-yl]-N′-isoquinolin-8-ylurea] | 1.5 °C
21 nM | CC1(C)C[C@@H](NC(=O)Nc2cccc3c2C[C@H](O)CC3)c2ccc(F)c(Cl)c2O1 [Example 108, N-[(4R)-8-chloro-7-fluoro-2,2-dimethyl-3,4-dihydro-2H-chromen-4-yl]-N′-[(7R)-7-hydroxy-5,6,7,8-tetrahydronaphthalen-1-yl]urea] | 1.2 °C
16 nM | Cn1ncc2c(NC(=O)N[C@@H]3CCOc4c3cccc4C(F)(F)F)cccc21 [Example 59, N-(1-methyl-1H-indazol-4-yl)-N′-[(4R)-8-(trifluoromethyl)-3,4-dihydro-2H-chromen-4-yl]urea] | 0.5 °C
25 nM | O=C(Nc1cccc2c1C[C@@H](O)CC2)N[C@@H]1CC(CF)(CF)Oc2cc(Cl)ccc21 [Example 104, N-[(4R)-7-chloro-2,2-bis(fluoromethyl)-3,4-dihydro-2H-chromen-4-yl]-N′-[(7S)-7-hydroxy-5,6,7,8-tetrahydronaphthalen-1-yl]urea] | 1.1 °C
17 nM | CCC1(CC)C[C@@H](NC(=O)Nc2cccc3c2cnn3C)c2ccc(F)cc2O1 [Example 46, N-[(4R)-2,2-diethyl-7-fluoro-3,4-dihydro-2H-chromen-4-yl]-N′-(1-methyl-1H-indazol-4-yl)urea] | 0.7 °C
33 nM | CC1(C)C[C@@H](NC(=O)Nc2cccc3c2C[C@H](O)CC3)c2ccccc2O1 [Example 36, N-[(4R)-2,2-dimethyl-3,4-dihydro-2H-chromen-4-yl]-N′-[(7R)-7-hydroxy-5,6,7,8-tetrahydronaphthalen-1-yl]urea] | 0.7 °C
7 nM | CCCC1(CCC)C[C@@H](NC(=O)Nc2cccc3c2C[C@H](O)CC3)c2cc(F)ccc2O1 [Example 72, N-[(4R)-6-fluoro-2,2-dipropyl-3,4-dihydro-2H-chromen-4-yl]-N′-[(7R)-7-hydroxy-5,6,7,8-tetrahydronaphthalen-1-yl]urea] | 0.7 °C
71 nM | CCC1(CC)C[C@@H](NC(=O)Nc2cccc3c2cnn3C)c2ccc(C(F)(F)F)cc2O1 [Example 49, N-[(4R)-2,2-diethyl-7-(trifluoromethyl)-3,4-dihydro-2H-chromen-4-yl]-N′-(1-methyl-1H-indazol-4-yl)urea] | 1.3 °C
13 nM | CCC1(CC)C[C@@H](NC(=O)Nc2cccc3c2cnn3C)c2ccc(Cl)cc2O1 [Example 78, N-[(4R)-7-chloro-2,2-diethyl-3,4-dihydro-2H-chromen-4-yl]-N′-(1-methyl-1H-indazol-4-yl)urea] | 0.6 °C
